Source: US10369145B2, “Coumarin derivatives and methods of use in treating hyperproliferative diseases” (DISCOVERYBIOMED, INC., priority 2013, dated 2019)

Tests used:
ARH-77 = assay: Complementary DBM in vitro profiling: ARH-77 (Hematologic Cancer); assay type: cell-based
Procedure: (§1) The compounds described herein are effective for inhibiting cellular proliferation in hyperproliferative cell types. To study the effects of these compounds, an assay was developed to differentiate the effects of the compounds on proliferating versus confluent cells. The assay design generates a proliferating density 24 hours after seeding and provides a 3-day active cell growth/doubling window in which to gauge the anti-proliferative effect of the compounds described herein. […] In this 3-day growth window, cell number increases with daily doublings across the 72-hour period (see FIG. 1).
(§2) In each assay design, compounds were added at the 24-hour timepoint after cell seeding. The effect of the compounds, relative to vehicle control and to VelCade (a proteasome inhibitor approved in the U.S. for treating relapsed multiple myeloma and mantle cell lymphoma) as a positive control, was assessed across the 3-day growth window for proliferating cells and on an already near confluent culture of cells for the same time period. Normal cells were handled in the same manner, with some adjustment of seeding density needed in select cases. […]
(§3) Cell number at the end of the assay was determined using the CELLTITER-GLO Luminescent Cell Viability Assay (Promega; Madison, Wis.). The CELLTITER-GLO Luminescent Cell Viability Assay is a homogeneous method of determining the number of viable cells in culture based on quantitation of the ATP present, an indicator of metabolically active cells. IC50 values were calculated. […]
(§4) For a typical screening experiment to identify the compounds, cells were seeded into 96- or 384-well microtiter plates at plating densities pre-determined for each cell line to ensure drug exposure occurs during the proliferative phase well before confluency is reached. […] Values were calculated for each of these three parameters if the level of activity was reached; however, if the effect was not reached or was exceeded, the value for that parameter was expressed as greater or less than the maximum or minimum concentration tested.

U118MG = assay: Complementary DBM in vitro profiling: U118MG (CNS Cancer); assay type: cell-based
Procedure: as §1, §2, §3, §4

IGROV1 = assay: NCI 60 panel: IGROV1 (Ovarian Cancer); assay type: cell-based
Source text: (§5) TGI means the drug concentration resulting in total growth inhibition or “cytostasis.” LC50 is the concentration of drug resulting in a 50% reduction in the measured cytosolic ATP at the end of the drug treatment as compared to that at the beginning, indicating a net loss of cells following treatment (cytotoxicity).

K-562 = assay: NCI 60 panel: K-562 (Leukemia); assay type: cell-based
Source text: as §5

HOP-62 = assay: NCI 60 panel: HOP-62 (Non-Small Cell Lung Cancer); assay type: cell-based
Source text: as §5

BT-549 = assay: NCI 60 panel: BT-549 (Breast Cancer); assay type: cell-based
Source text: as §5

COLO 205 = assay: NCI 60 panel: COLO 205 (Colon Cancer); assay type: cell-based
Source text: as §5

[1] = test system: primary human ADPKD cystic epithelial cell lines, ARCaP-M, CAKI-1; assay: Viability in cystic ADPKD cells, prostate and kidney cancer lines; assay type: cell-based
Procedure: as §1
In each assay design, compounds were added at the 24-hour timepoint after cell seeding. The effect of the compounds, relative to vehicle control and to VelCade (a proteasome inhibitor approved in the U.S. for treating relapsed multiple myeloma and mantle cell lymphoma) as a positive control, was assessed across the 3-day growth window for proliferating cells and on an already near confluent culture of cells for the same time period. Normal cells were handled in the same manner, with some adjustment of seeding density needed in select cases. This assay design holds for the data series presented below.
Cell number at the end of the assay was determined using the CELLTITER-GLO Luminescent Cell Viability Assay (Promega; Madison, Wis.). The CELLTITER-GLO Luminescent Cell Viability Assay is a homogeneous method of determining the number of viable cells in culture based on quantitation of the ATP present, an indicator of metabolically active cells. IC50 values were calculated. Cell number (number of cells per well) was converted to the % of DMSO matched controls. Each measurement was performed in triplicate. Typical dosage ranges tested were from 250 picomolar to 50 micromolar.
The compounds as described herein were tested on primary human ADPKD cystic epithelial cell lines as well as two common cancer cell lines from the prostate (ARCaP-M) and kidney (CAKI-1).

HOP-92 = assay: NCI 60 panel: HOP-92 (Non-Small Cell Lung Cancer); assay type: cell-based
Source text: as §5

SNB-75 = assay: NCI 60 panel: SNB-75 (CNS Cancer); assay type: cell-based
Source text: as §5

NCI-60 cell panel = assay: NCI-60 cell panel, whole panel; assay type: cell-based, human; conditions: average in the NCI-60 cell panel
786-0 = assay: NCI 60 panel: 786-0 (Renal Cancer); assay type: cell-based
Source text: as §5

SN12C = assay: NCI 60 panel: SN12C (Renal Cancer); assay type: cell-based
Source text: as §5

FaDu = assay: Complementary DBM in vitro profiling: FaDu (Hypopharyngeal Cancer); assay type: cell-based
Procedure: as §1, §2, §3, §4

HS 578T = assay: NCI 60 panel: HS 578T (Breast Cancer); assay type: cell-based
Source text: as §5

MCF7 = assay: NCI 60 panel: MCF7 (Breast Cancer); assay type: cell-based
Source text: as §5

OVCAR-4 = assay: NCI 60 panel: OVCAR-4 (Ovarian Cancer); assay type: cell-based
Source text: as §5

SK-MEL-2 = assay: NCI 60 panel: SK-MEL-2 (Melanoma); assay type: cell-based
Source text: as §5

MOLT-4 = assay: NCI 60 panel: MOLT-4 (Leukemia); assay type: cell-based
Source text: as §5

A549 = assay: NCI 60 panel: A549 (Non-Small Cell Lung Cancer); assay type: cell-based
Source text: as §5

SF-295 = assay: NCI 60 panel: SF-295 (CNS Cancer); assay type: cell-based
Source text: as §5

RPMI-8226 = assay: NCI 60 panel: RPMI-8226 (Leukemia); assay type: cell-based
Source text: as §5

UO-31 = assay: NCI 60 panel: UO-31 (Renal Cancer); assay type: cell-based
Source text: as §5

SF-539 = assay: NCI 60 panel: SF-539 (CNS Cancer); assay type: cell-based
Source text: as §5

[2] = read-out: LC50 (the source's name)

COc1ccccc1Nc1nc(-c2cc3cccc(N)c3oc2=O)cs1 [Compound DBM 228]
GI50 (ARH-77): 0.154 µM
TGI (ARH-77): 0.339 µM
CC50 (ARH-77; [2]): > 30 µM
GI50 (U118MG): 2.71 µM
TGI (U118MG): 7.85 µM
CC50 (U118MG; [2]): > 30 µM
GI50 (IGROV1): 1.23 µM
TGI (IGROV1): 23.4 µM
CC50 (IGROV1; [2]): > 100 µM
GI50 (K-562): 0.043 µM
TGI (K-562): 16.1 µM
CC50 (K-562; [2]): > 100 µM
GI50 (HOP-62): 0.537 µM
TGI (HOP-62): 44.8 µM
CC50 (HOP-62; [2]): > 100 µM
GI50 (BT-549): 0.239 µM
TGI (BT-549): 12.3 µM
CC50 (BT-549; [2]): > 100 µM
GI50 (COLO 205): 0.337 µM
TGI (COLO 205): 1.8 µM
CC50 (COLO 205; [2]): > 100 µM
effect on cells, in words ([1]; at and around the 1 micromolar dose): cytostatic plateau
effect on cells, in words ([1]; higher mid-micromolar concentrations): cytotoxic effect
effect on cells, in words ([1]; nanomolar ranges, 12-point CRC): growth arrested but not killed
GI50 (HOP-92): 1.45 µM
TGI (HOP-92): 24.7 µM
CC50 (HOP-92; [2]): > 100 µM
GI50 (SNB-75): 0.0481 µM
CC50 (SNB-75; [2]): > 100 µM
GI50 (NCI-60 cell panel): 0.25 µM
GI50 (786-0): 0.709 µM
TGI (786-0): 15.9 µM
CC50 (786-0; [2]): 89.4 µM
GI50 (SN12C): 0.526 µM
TGI (SN12C): >100 µM
CC50 (SN12C; [2]): > 100 µM
GI50 (FaDu): 1.4 µM
TGI (FaDu): 8.74 µM
CC50 (FaDu; [2]): 27.5 µM
GI50 (HS 578T): 13.7 µM
TGI (HS 578T): >100 µM
CC50 (HS 578T; [2]): > 100 µM
GI50 (MCF7): 0.0545 µM
TGI (MCF7): >100 µM
CC50 (MCF7; [2]): > 100 µM
GI50 (OVCAR-4): 1.35 µM
TGI (OVCAR-4): 25 µM
CC50 (OVCAR-4; [2]): > 100 µM
GI50 (SK-MEL-2): 0.086 µM
TGI (SK-MEL-2): 28.4 µM
CC50 (SK-MEL-2; [2]): 99.5 µM
GI50 (MOLT-4): 0.168 µM
TGI (MOLT-4): 17.8 µM
CC50 (MOLT-4; [2]): > 100 µM
GI50 (A549): 0.097 µM
TGI (A549): 22.6 µM
CC50 (A549; [2]): > 100 µM
GI50 (SF-295): 0.0424 µM
TGI (SF-295): 1.49 µM
CC50 (SF-295; [2]): 41.5 µM
GI50 (RPMI-8226): 0.238 µM
TGI (RPMI-8226): 43.9 µM
CC50 (RPMI-8226; [2]): > 100 µM
GI50 (UO-31): 1.46 µM
TGI (UO-31): 43 µM
CC50 (UO-31; [2]): > 100 µM
GI50 (SF-539): 0.109 µM
TGI (SF-539): 0.85 µM
CC50 (SF-539; [2]): 29.8 µM
